Data reported in US6656888B1, “Biodegradable two-cycle engine oil compositions, grease compositions, and ester base stocks use therein” (Cognis Corporation, priority 1992, dated 2003).

Assays:
Assay type in all cases: physicochemical
Flash Point, ASTM D-92 = assay: Flash Point, ASTM D-92
[1] = Kinematic viscosity, ASTM D-445
Pour Point, ASTM D-97 = assay: Pour Point, ASTM D-97

## trimethylolpropane trioleate [EMERY® 2964]
Flash Point, ASTM D-92
  Flash Point, ° C.: 312 °C
[1]; 40° C.
  Viscosity, cSt 40° C.: 48.43 cSt
[1]; 100° C.
  Viscosity, cSt 100° C.: 10.17 cSt
Pour Point, ASTM D-97
  Pour Point, ° C.: −40 °C
